The source of these data is patent US20230157308A1, “PERMEABILIZED MICROBIAL CELL CATALYSTS” (DANMARKS TEKNISKE UNIVERSITET, priority 2020, published 2023).

Experiment [1] deals with Lactococcus lactis biovar. diacetylactis RD1M5 cells. In words: Acetoin production from pyruvate by permeabilized RD1M5 cells. Type of experiment: cell-based. The settings on record: 100 mg/L monolaurin, 20 min at 30° C.; 700 mg/L cells, 100 mM pyruvate, 1 h. How it is done: Lactococcus lactis biovar. diacetylactis RD1M5 was permeabilized as described in example 1.2, using 100 mg/L monolaurin for 20 min at 30° C. 700 mg/L cells were suspended in POM buffer solution with 100 mM pyruvate. After 1 h, the cells were removed and the supernatant was used to quantify the acetoin concentration. Quantification of lactose, lactate, acetoin, and citrate were carried out using an Ultimate high-performance liquid chromatography system equipped with a Aminex HPX-87H column (300×7.8 mm column) (Bio-Rad, Hercules, USA) and a Shodex RI-101 refractive index detector (Showa Denko K.K., Tokyo, Japan). The mobile phase was 5 mM H2SO4 with a flow rate of 0.5 mL/min and the column oven temperature was maintained at 60° C.

Experiment [2] has as its system S. thermophilus CS1980 cells. The experiment is described as follows: Lactose hydrolysis by permeabilized S. thermophilus CS1980 cells. The following applies: for effectiveness in cell permeabilization: 100 mg/L agent, 100 mg/l S. thermophilus cells, POM buffer. It is filed as cell-based, Streptococcus thermophilus. On the procedure: S. thermophilus strains were grown in 500-ml Erlenmeyer flasks containing 200 mL of medium at 37° C. for 16 h without agitation. 2 mL of an overnight culture was used as inoculum. Cells were collected by centrifugation at 10,000×g for 10 min at 4° C., washed once with sterile POM buffer (50 mM K2HPO4/KH2PO4, 1 mM MgCl2, pH 7.4) and finally re-suspended in POM buffer to an optical density (OD600) of 0.3, corresponding to approximately 0.1 g/L (dry weight basis). For permeabilization, cell suspensions were dispensed into sterile tubes (1 mL per tube) and centrifuged in a microcentrifuge at 10,000×g for 5 min at 4° C. After decanting the supernatants, cell pellets were resuspended in 1 mL POM buffer containing different concentrations (10 mg/l and 100 mg/l) of monolaurin (Toronto Research Chemicals, Toronto, Canada), and were maintained for 10 min at 28° C. Non permeabilized cells in POM buffer were used as control. 100 mg/l of monomyristin was also tested as premeabilization agent. The cells were resuspended in POM buffered lactose (50 g/L) solution. The hydrolysis was carried out at 50° C. for 2 h. The concentration of lactose, glucose and galactose was determined on an Ultimate 3000 high-performance liquid chromatography (HPLC) system (Dionex) equipped with an Aminex HPX-87H column (Bio-Rad) and a Shodex RI-101 detector (Showa Denko K.K.). The column oven temperature was set to 60° C., and the mobile phase consisted of 5 mM H2SO4. The flow rate used was 0.5 mL/min.

Experiment [3] concerns S. thermophilus CS1980. The experiment is described as follows: Lactose hydrolysis: monolaurin- versus ethanol-permeabilized cells. Type of experiment: cell-based, Streptococcus thermophilus. The following applies: for stability of the whole-cell catalyst: 100 μg/ml monolaurin or 45% (v/v) ethanol, 10 min at 28° C. On the procedure: S. thermophilus CS1980 was permeabilized for 10 minutes at 28° C. using (i) 100 μg/ml monolaurin in POM buffer or (ii) 45% (v/v) ethanol for 10 minutes, or (iii) not permeabilized (control). Hydrolysis of lactose in POM buffer (50 g/l lactose) at 50° C. was carried out at a cell concentration of approximately 100 mg/l.

In experiment [4] the test system is S. thermophilus CS1980. The experiment is described as follows: Permeabilization of S. thermophilus CS1980 at different temperatures. It is filed as cell-based, Streptococcus thermophilus. The following applies: permeabilization temperatures 20-50° C. On the procedure:
[…] Controls are prepared without addition of monolaurin in the permeabilization step. Hydrolysis of lactose by monolaurin-treated cells is carried out in a POM buffered solution.

Molecules are shown by their SMILES.

In the case of `CCCCCCCCCCCC(=O)OCC(O)CO` (stereo not drawn) [monolaurin], the “acetoin produced from pyruvate compared to non-treated cells” value in experiment [1] is “much higher concentrations of acetoin”. Moreover, in experiment [2], the “effectiveness in cell permeabilization” value was “efficiently permeabilizes the cells”. For the same molecule, in experiment [2] (cells permeabilized 10 min at 28° C., 50 g/L lactose, 2 hours at 50° C., 100 mg/L cells (dry weight)), the “lactose hydrolyzed by permeabilized cells” value is 55%. Besides, in experiment [2] (too low monolaurin concentration (10 mg/l tested), 50 g/L lactose, 50° C.), the “hydrolysis by cells treated with too low monolaurin concentration” value was “neglectable”. The “stability of the whole-cell catalyst” value in the experiment on S. thermophilus CS1980 [3] was “higher stability”. Further, the “lactose conversion by permeabilized cells” value in the experiment with S. thermophilus CS1980 [3] (permeabilized 10 min at 28° C., 100 μg/ml monolaurin, 50 g/l lactose, 50° C., about 100 mg/l cells) is recorded as “perform better than the control as well as the ethanol-permeabilized cells”. Besides, the “efficiency of permeabilization over temperature range” value in the experiment on S. thermophilus CS1980 [4] is “equally efficient”.
For the molecule `CCCCCCCCCCCCCC(=O)OCC(O)CO` (stereo not drawn) [Monomyristin, monomyristin], in experiment [2], the “effectiveness in cell permeabilization” value is listed as “same effectiveness in cell permeabilization as monolaurin”.
With `CCO` [ethanol, reference compound], the “stability of the whole-cell catalyst” value in the experiment on S. thermophilus CS1980 [3] is on record as “compromised the stability of the whole-cell catalyst”.
